Test results from patent US12435294B2, “Prevention of the oxidation of perfumery raw materials and food raw materials” (Firmenich SA, priority 2018, dated 2025).
“And” between values parts separate entries of the source, which are not always exact repeats. Equal entries are not always repeated. Where two headings read alike, the source gives them in different places.

Assays:
[1] = POV reduction in sunflower oil; details: for POV of treated oil / % Reduction in POV: 0.3358 g in 15 mL sunflower oil
[2] = POV reduction in autoxidized limonene
Experimental: The vial was shaken once and allowed to stand for 50 minutes. No further treatment was done prior to the POV testing. […] POV before treatment was 65.97 mEq./L, and POV after treatment was 17.21 mEq./L. […] The vial was shaken once and allowed to stand, while being monitored for POV value as a function of time. […] The vial was shaken once and allowed to stand, while being monitored for POV value as a function of time.

[3] = POV reduction in model citrus perfume (mixed citrus oil in 90/10 v/v ethanol/water); details: for Reduction in POV (%): vs untreated; for reduction in POV relative to untreated material: 7 days after addition, 1.0% w/v in model perfume
[4] = Solubility / miscibility observed on addition to the treated material
[5] = HPLC chemiluminescence peak area of oxidized limonene; details: oxidized limonene 100 μL + 2 mg HDPA
Experimental: Preparation of the Treated Sample: Oxidized limonene (100 μL, with a starting POV of approximately 38 mmol/L) was treated with 2 mg of HDPA (approximately 2 eq of HP). The treated & un-treated limonene samples were allowed to stand on the benchtop under ambient laboratory light at room temperature, and HPLC Chemiluminescence measurements were taken periodically. The same quantity of untreated limonene was prepared in a 2nd vial and monitored similarly to the treated one for comparison.

[6] = model citrus perfume, DMESi 0.3247 g, 0 d since addition
[7] = model citrus perfume, DMESi 0.3247 g, 0.08 d since addition
[8] = model citrus perfume, DMESi 0.3247 g, 1.29 d since addition
[9] = model citrus perfume, DMESi 0.3247 g, 5 d since addition
[10] = model citrus perfume, DMESi 0.3247 g, 14 d since addition
[11] = 1 day, approximately 150 mg (1.0% w/v) in 15 mL model perfume (Examples 14, 20, 21)
[12] = 2 days, 1.0% w/v in 15 mL model perfume (Examples 14, 20, 21)
[13] = 4 days, 1.0% w/v in 15 mL model perfume (Examples 14, 20, 21)
[14] = 7 days, 1.0% w/v in 15 mL model perfume (Examples 14, 20, 21)
[15] = 3 min since addition, 250 μL in 20 mL autoxidized limonene
[16] = 20 min since addition, 250 μL in 20 mL autoxidized limonene
[17] = 35 min since addition, 250 μL in 20 mL autoxidized limonene
[18] = 44 min since addition, 250 μL in 20 mL autoxidized limonene
[19] = 66 min since addition, 250 μL in 20 mL autoxidized limonene
[20] = 40 min since addition, 200 mg in 20 mL autoxidized limonene
[21] = 150 min since addition, 200 mg in 20 mL autoxidized limonene
[22] = 190 min since addition, 200 mg in 20 mL autoxidized limonene
[23] = 2880 min (48 hrs) since addition, 200 mg in 20 mL autoxidized limonene

CCCC(=O)C(=O)O [2-oxovaleric acid]
POV ([1]; 30 minutes since addition, 250 μL in 25 mL sunflower oil): 7.38 mmol/L
POV reduction ([1]; 30 minutes, 250 μL in 25 mL sunflower oil, vs most recent untreated POV): 16.2%
POV ([1]; 50 minutes since addition, 250 μL in 25 mL sunflower oil): 7.84 mmol/L
POV reduction ([1]; 50 minutes, 250 μL in 25 mL sunflower oil, vs most recent untreated POV): 11.0%
POV, averaged value (in parentheses) ([1]; 23 hours since addition, 250 μL in 25 mL sunflower oil): 4.81 mmol/L
POV ([1]; 23 hours since addition, 250 μL in 25 mL sunflower oil, single measurements): 4.95 mmol/L and 4.67 mmol/L
POV reduction ([1]; 23 hours, 250 μL in 25 mL sunflower oil, vs most recent untreated POV): 45.4%
POV, averaged value (in parentheses) ([1]; 46 hours since addition, 250 μL in 25 mL sunflower oil): 5.22 mmol/L
POV ([1]; 46 hours since addition, 250 μL in 25 mL sunflower oil, single measurements): 5.34 mmol/L and 5.10 mmol/L
POV reduction ([1]; 46 hours, 250 μL in 25 mL sunflower oil, vs most recent untreated POV): 53.0%
POV, averaged value (in parentheses) ([1]; 15 days since addition, 250 μL in 25 mL sunflower oil): 2.10 mmol/L
POV ([1]; 15 days since addition, 250 μL in 25 mL sunflower oil, single measurements): 2.27 mmol/L and 2.05 mmol/L and 1.99 mmol/L
POV reduction ([1]; 15 days, 250 μL in 25 mL sunflower oil (0.83% v/v), vs untreated oil): 82.9%
reduction in POV ([2]; 100 μL in 10 mL autoxidized limonene, 50 minutes, vs 65.97 mEq./L before): approximately 74%
POV after Treatment ([2]; 100 μL in 10 mL autoxidized limonene, stood 50 minutes): 17.21 mEq./L

CC[SiH](C)C [DMESi, Dimethylethylsilane]
POV (mmol/L) of treated [3, 6]: 13.2 mmol/L
Reduction in POV (%) [3, 6]: 0.00%
POV (mmol/L) of treated [3, 7]: 9.29 mmol/L
Reduction in POV (%) [3, 7]: 29.62%
POV (mmol/L) of treated [3, 8]: 9.32 mmol/L
Reduction in POV (%) [3, 8]: 33.43%
POV (mmol/L) of treated [3, 9]: 10.53 mmol/L
Reduction in POV (%) [3, 9]: 30.03%
POV (mmol/L) of treated [3, 10]: 13.65 mmol/L
Reduction in POV (%) [3, 10]: 24.38%

O=C(O)C(=O)c1ccco1 [α-Oxo-2-furanacetic acid, α-oxo-2-furanacetic acid]
solubility in mixed citrus oil (in words) ([4]; on addition to mixed citrus oil): The majority of the added α-oxo-2-furanacetic acid did not dissolve

N[C@@H](CCC(=O)N[C@@H](CS)C(=O)NCC(=O)O)C(=O)O [glutathione]
% POV Reduction ([3]; approximately 0.15 g in 15 mL model perfume, 3 days after addition): 100%
POV after Treatment ([3]; approximately 0.15 g in 15 mL model perfume, 3 days after addition, untreated 5.55 mmol/L): 0.00 mmol/L

O=CC(=O)O [Glyoxylic Acid]
POV after Treatment ([3]; model citrus perfume, 3 days after addition of treating compound): 3.00 mmol/L
% POV Reduction ([3]; model citrus perfume, 3 days after addition of treating compound, vs untreated sample): 54.6%
POV after Treatment ([3]; model citrus perfume, 10 days after addition of treating compound): 1.61 mmol/L
% POV Reduction ([3]; model citrus perfume, 10 days after addition of treating compound, vs untreated sample): 80.8%

O=C(O)C(=O)c1ccccc1.O=C1NCCN1CCO [PhGA-HEI]
POV of Treated Perfume [3, 11]: 3.51 mmol/L
POV of Treated Perfume [3, 12]: 3.18 mmol/L
POV of Treated Perfume [3, 13]: 3.06 mmol/L
reduction in POV relative to untreated material [3]: 58.8%
POV of Treated Perfume [3, 14]: 2.94 mmol/L

CC1=C(C(=O)N(C)C)CC(C(=O)N(C)C)=C(C)N1 [HDPA, N(3),N(3),N(5),N(5),2,6-Hexamethyl-1,4-Dihydro-3,5-Pyridinedicarboxamide]
Peak Area Treated ([5]; treatment time 1 day): 12723
Peak Area Treated ([5]; treatment time 6 days): 12128
Peak Area Treated ([5]; treatment time 13 days): 10978
Peak Area Treated ([5]; treatment time 20 days): 17089

C[SiH](C)O[Si](C)(C)C [PMDSi, Pentamethyldisiloxane]
solubility / miscibility in model citrus perfume (in words) ([4]; on addition to hydroalcoholic model citrus perfume): miscible with the perfume

CCC(=O)C(=O)O [2-oxobutyric acid]
POV [2, 15]: 43.680 mEq/L
POV reduction [2, 15]: 34.1%
POV [2, 16]: 22.140 mEq/L
POV reduction [2, 16]: 66.6%
POV [2, 17]: 22.681 mEq/L
POV reduction [2, 17]: 65.8%
POV [2, 18]: 19.968 mEq/L
POV reduction [2, 18]: 69.9%
POV [2, 19]: 21.406 mEq/L
POV reduction [2, 19]: 67.7%
measured POV ([2]; additional 500 μL added (after 250 μL), additional 24 hours, 20 mL autoxidized limonene): 8.577 mEq./L
total reduction ([2]; additional 500 μL added, additional 24 hours): 87.1%

CCOC(=O)[C@@H](N)CS.Cl [L-Cysteine ethyl ester hydrochloride]
% POV Reduction ([3]; approximately 0.15 g in 15 mL model perfume, 89 minutes after addition): 100%
POV after Treatment ([3]; approximately 0.15 g in 15 mL model perfume, 89 minutes after addition, untreated 5.55 mmol/L): 0.00 mmol/L

L-Ascorbic acid 2-phosphate sesqui-magnesium salt hydrate [Vc-PSeMg]
POV (mmol/L) of treated ([3]; hydrate): 12.4 mmol/L and 12.32 mmol/L and 12.66 mmol/L and 12.28 mmol/L and 13.26 mmol/L and 15.25 mmol/L and 20.2 mmol/L

COC(=O)[C@H](CS)NC(C)=O [N-acetylcysteine methyl ester]
% POV Reduction [3]: 100%
POV after Treatment [3]: 0.00 mmol/L

CCCCCCCCCCN(C)C.O=C(O)C(=O)c1ccco1 [FAA-DiMeC10A]
POV of Treated Perfume [3, 11]: 5.06 mmol/L
POV of Treated Perfume [3, 12]: 4.89 mmol/L
POV of Treated Perfume [3, 13]: 4.68 mmol/L
reduction in POV relative to untreated material [3]: 40.0%
POV of Treated Perfume [3, 14]: 4.28 mmol/L
POV of treated oil ([1]; 85 minutes since addition): 5.16 mmol/L
% Reduction in POV ([1]; 85 minutes): 68.8%
% Reduction in POV ([1]; 140 minutes): 82.1%
POV of treated oil ([1]; 140 minutes): 2.97 mmol/L
% Reduction in POV ([1]; 1320 mins (22 hrs)): 97.4%
POV of treated oil ([1]; 1320 mins (22 hrs)): 0.43 mmol/L
% Reduction in POV ([1]; 23 days): 100%
POV of treated oil ([1]; 23 days, indistinguishable from BLANK): 0.00 mmol/L

CN(C)CCO.CN(C)CCO.O=C(O)CCC(=O)C(=O)O [AKG DiDeanol]
POV of Treated Perfume ([3]; 60 min, approximately 200 mg (1.0% w/v) in 20 mL model perfume (Example 9)): 5.95 mmol/L
POV of Treated Perfume ([3]; 75 min, 1.0% w/v in 20 mL model perfume (Example 9)): 5.66 mmol/L
POV of Treated Perfume ([3]; 115 min, 1.0% w/v in 20 mL model perfume (Example 9)): 4.96 mmol/L
POV of Treated Perfume ([3]; 195 min, 1.0% w/v in 20 mL model perfume (Example 9)): 3.20 mmol/L
POV of Treated Perfume ([3]; 210 min, 1.0% w/v in 20 mL model perfume (Example 9)): 3.08 mmol/L
POV of Treated Perfume ([3]; 300 min (5 hours), 1.0% w/v in 20 mL model perfume (Example 9)): 2.31 mmol/L
POV of Treated Perfume ([3]; 370 min, 1.0% w/v in 20 mL model perfume (Example 9)): 1.73 mmol/L
POV of Treated Perfume ([3]; 380 min, 1.0% w/v in 20 mL model perfume (Example 9)): 1.72 mmol/L
POV of Treated Perfume ([3]; […] (24 hours), 1.0% w/v in 20 mL model perfume (Example 9), indistinguishable from blank): 0.0 mmol/L

2-Phospho-L-ascorbic acid trisodium salt [Vc-PTNa]
POV (mmol/L) of treated ([3]; trisodium salt): 12.4 mmol/L and 11.7 mmol/L and 11.57 mmol/L and 10.15 mmol/L and 8.7 mmol/L and 9.22 mmol/L and 9.49 mmol/L

O=C(O)C(=O)c1ccccc1 [phenylglyoxylic acid]
solubility in autoxidized limonene (in words) ([4]; 200 mg in 20 mL): dissolved
POV [2, 20]: 37.035 mEq/L
POV reduction [2, 20]: 17.3%
POV [2, 21]: 34.086 mEq/L
POV reduction [2, 21]: 23.9%
POV [2, 22]: 29.963 mEq/L
POV reduction [2, 22]: 33.1%
POV [2, 23]: 17.265 mEq/L
POV reduction [2, 23]: 61.5%
